Assay results as given in patent publication US6379652B1, “Oral compositions for reducing mouth odors” (Colgate Palmolive Company, priority 2000, dated 2002).

System: F. nucleatum
Experiment: MIC assay for bactericidal activity (microtiter format)
Assay type: cell-based
Set-up: MIC Value: unit not given here
Settings: for MIC Value: individual flavors, 1% by weight solution in ethanol, F. nucleatum, lower = more effective; for bactericidal activity against F. nucleatum (in words): summary of Table I
Protocol: A 1% by weight solution in ethanol of a series of individual essential oil flavors were prepared and evaluated in an MIC assay for bactericidal activity against F. nucleatum. The bacterial strain F. nucleatum is implicated in the occurrence of oral malodor.
The bacterial strains of F. nucleatum were grown […] in thioglycolate broth for 48 hours at 37° C. The optical density at 610 nm was adjusted to between 0.1 to 0.2 prior the MIC determination.
MIC determinations were performed using the microtiter format according to standard procedures (Manual of clinical Microbiology, 1995).
The procedure of Example 1 was repeated except combinations of various flavor compounds were evaluated for antibacterial efficacy via the MIC assay.

Structure (SMILES) | MIC Value | bactericidal activity against F. nucleatum (in words)
CC=Cc1ccc(OC)cc1 [Anethol] | 500 | 
O=C/C=C/c1ccccc1 [Cinnamic aldehyde] | 125 | good bactericidal activity
CC12CCC(CC1)C(C)(C)O2 [Eucalyptol] | 500 | 
C=CCc1ccc(O)c(OC)c1 [Eugenol] | 250 | good bactericidal activity
CC(C)[C@@H]1CC[C@@H](C)C[C@H]1O [L-menthol] | 500 | 
Cc1ccc(C(C)C)c(O)c1 [Thymol] | 125 | good bactericidal activity
